# Experiments:
# Streptococcus sp. = experiment: in vitro antibacterial evaluation, MIC by broth dilution; type: cell-based; conditions: broth dilution, 18 hours at 35° C.
# Procedure, shortened: (§1)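 Broth dilution per NCCLS M7-A2 in Mueller-Hinton II medium, inoculum 5×10^5 CFU/mL, antibiotic range 64-0.06 μg/mL. MIC taken as lowest concentration inhibiting growth; Gram-positive panel includes recent clinical isolates resistant to methicillin, penicillin and/or vancomycin.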
# Enterococcus sp. = experiment: as above; type: cell-based; conditions: broth dilution, 18 hours at 35° C.
# Procedure, shortened: as §1
# Staphylococcus sp. = experiment: as above; type: cell-based; conditions: broth dilution, 18 hours at 35° C.; for MIC Staphylococcus aureus (ATCC 29213): strain ATCC 29213; for MIC Staphylococcus aureus (GC 1131): strain GC 1131; for MIC Staphylococcus aureus (GC 3051): strain GC 3051; for MIC Staphylococcus aureus (GC 3053): strain GC 3053; for MIC Staphylococcus aureus (GC 4541): strain GC 4541; for MIC Staphylococcus aureus (GC 4542): strain GC 4542; for MIC Staphylococcus aureus-SMITH (GC 4543): strain GC 4543; for MIC Staphylococcus aureus (GC 4544): strain GC 4544; for MIC Staphylococcus aureus (GC 4545): strain GC 4545; for MIC Staphylococcus haemolyticus (GC 4546): strain GC 4546; for MIC Coagulase Negative Staphylococcus (GC 4547): strain GC 4547; for MIC Coagulase Negative Staphylococcus (GC 4548): strain GC 4548; for MIC Coagulase Negative Staphylococcus (GC 4549): strain GC 4549; for MIC Coagulase Negative Staphylococcus (GC 4551): strain GC 4551
# Procedure, shortened: as §1
# [1] = clinical pathology (serum clinical chemistry) in mice; type: in vivo; conditions: CD-1 mice, 20 mg/kg intravenously daily for 9 days, sera day 10
# Procedure: 20-day-old CD-1 mice were divided into a vehicle control group (5 mice) and a treatment group (5 mice). Samples of glycopeptide antibiotics were administered at 20 mg/kg intravenously daily for 9 days.
# Escherichia coli = experiment: in vitro antibacterial evaluation, MIC by broth dilution; type: cell-based; conditions: 18 hours at 35° C.
# Procedure, shortened: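 Broth dilution MIC per NCCLS M7-A2 in Mueller-Hinton II medium, inoculum 5×10^5 CFU/mL, antibiotic range 64-0.06 μg/mL. MIC taken as lowest concentration inhibiting growth.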
# [2] = anatomic pathology (histopathology of heart and kidney) in mice; type: in vivo; conditions: CD-1 mice, 20 mg/kg intravenously daily for 9 days, necropsy day 10, microscopic histopathology
# Procedure: Samples of tissues from necropsied mice were formalin-fixed, paraffin-embedded, sectioned, stained with hematoxylin and eosin, and examined microscopically. Histopathologic findings were recorded. These findings were subjectively graded on a scale corresponding to slight, mild, moderate, marked and severe as compared to untreated controls.
# [3] = Enterococcus faecalis (ATCC 29212)
# [4] = Enterococcus faecalis (GC 4552)
# [5] = Enterococcus faecalis (GC 4553)
# [6] = Enterococcus faecalis (GC 4554)
# [7] = Enterococcus faecalis (GC 6189)
smiles,measurement,setting,value
CC(c1ccccc1)C1NC(=O)CNC(=O)C(CO)NC(=O)C(C(O)C2CN(Cc3ccccc3-c3ccccc3)C(=N)N2C2OC(CO)C(O)C(O)C2O)NC(=O)C(C(O)C2CNC(=N)N2)NC(=O)C(Cc2ccc(OC3OC(CO)C(OC4OC(CO)C(O)C(O)C4O)C(O)C3O)cc2)NC1=O (stereo not shown) [Example 65],MIC Streptococcus agalactiae (GC 4564),Streptococcus sp.,>128 µg/mL
same,MIC Streptococcus pneumoniae (ATCC 6301),Streptococcus sp.,128 µg/mL
same,MIC Streptococcus pneumoniae (GC 1894),Streptococcus sp.,128 µg/mL
same,MIC Streptococcus pneumoniae (GC 4565),Streptococcus sp.,128 µg/mL
same,MIC Streptococcus pyogenes (GC 4563),Streptococcus sp.,128 µg/mL
same,MIC Streptococcus pneumoniae (ATCC 6301),Streptococcus sp.; strain ATCC 6301,128 µg/mL
same,MIC Streptococcus pneumoniae (GC 1894),Streptococcus sp.; strain GC 1894,128 µg/mL
same,MIC Streptococcus pyogenes (GC 4563),Streptococcus sp.; strain GC 4563,128 µg/mL
same,MIC Streptococcus agalactiae (GC 4564),Streptococcus sp.; strain GC 4564,>128 µg/mL
same,MIC Streptococcus pneumoniae (GC 4565),Streptococcus sp.; strain GC 4565,128 µg/mL
same,MIC Enterococcus avium (GC 4558),Enterococcus sp.; Enterococcus avium (GC 4558),128 µg/mL
same,MIC Enterococcus faecalis (ATCC 29212),Enterococcus sp.; [3],>128 µg/mL
same,MIC Enterococcus faecalis (GC 4552),Enterococcus sp.; [4],>128 µg/mL
same,MIC Enterococcus faecalis (GC 4553),Enterococcus sp.; [5],128 µg/mL
same,MIC Enterococcus faecalis (GC 4554),Enterococcus sp.; [6],>128 µg/mL
same,MIC Enterococcus faecalis (GC 6189),Enterococcus sp.; [7],>128 µg/mL
same,MIC Enterococcus faecium (GC 2243),Enterococcus sp.; Enterococcus faecium (GC 2243),128 µg/mL
same,MIC Enterococcus faecium (GC 4556),Enterococcus sp.; Enterococcus faecium (GC 4556),>128 µg/mL
same,MIC Enterococcus faecium (GC 4557),Enterococcus sp.; Enterococcus faecium (GC 4557),128 µg/mL
same,MIC Enterococcus avium (GC 4558),Enterococcus sp.,128 µg/mL
same,MIC Enterococcus faecalis (ATCC 29212),Enterococcus sp.,>128 µg/mL
same,MIC Enterococcus faecalis (GC 2242),Enterococcus sp.,>128 µg/mL
same,MIC Enterococcus faecalis (GC 2691),Enterococcus sp.,>128 µg/mL
same,MIC Enterococcus faecalis (GC 3059),Enterococcus sp.,>128 µg/mL
same,MIC Enterococcus faecalis (GC 4552),Enterococcus sp.,>128 µg/mL
same,MIC Enterococcus faecalis (GC 4553),Enterococcus sp.,128 µg/mL
same,MIC Enterococcus faecalis (GC 4554),Enterococcus sp.,>128 µg/mL
same,MIC Enterococcus faecalis (GC 6189),Enterococcus sp.,>128 µg/mL
same,MIC Enterococcus faecium (GC 2243),Enterococcus sp.,128 µg/mL
same,MIC Enterococcus faecium (GC 4556),Enterococcus sp.,>128 µg/mL
same,MIC Enterococcus faecium (GC 4557),Enterococcus sp.,128 µg/mL
same,MIC Enterococcus faecalis (GC 2242),Enterococcus sp.; strain GC 2242,>128 µg/mL
same,MIC Enterococcus faecalis (GC 2691),Enterococcus sp.; strain GC 2691,>128 µg/mL
same,MIC Enterococcus faecalis (GC 3059),Enterococcus sp.; strain GC 3059,>128 µg/mL
same,MIC Staphylococcus aureus (ATCC 29213),Staphylococcus sp.,>128 µg/mL
same,MIC Staphylococcus aureus (GC 1131),Staphylococcus sp.,>128 µg/mL
same,MIC Staphylococcus aureus (GC 3051),Staphylococcus sp.,>128 µg/mL
same,MIC Staphylococcus aureus (GC 3053),Staphylococcus sp.,>128 µg/mL
same,MIC Staphylococcus aureus (GC 4541),Staphylococcus sp.,>128 µg/mL
same,MIC Staphylococcus aureus (GC 4542),Staphylococcus sp.,>128 µg/mL
same,MIC Staphylococcus aureus-SMITH (GC 4543),Staphylococcus sp.,>128 µg/mL
same,MIC Staphylococcus aureus (GC 4544),Staphylococcus sp.,>128 µg/mL
same,MIC Staphylococcus aureus (GC 4545),Staphylococcus sp.,>128 µg/mL
same,MIC Staphylococcus haemolyticus (GC 4546),Staphylococcus sp.,>128 µg/mL
same,MIC Coagulase Negative Staphylococcus (GC 4547),Staphylococcus sp.,>128 µg/mL
same,MIC Coagulase Negative Staphylococcus (GC 4548),Staphylococcus sp.,>128 µg/mL
same,MIC Coagulase Negative Staphylococcus (GC 4549),Staphylococcus sp.,>128 µg/mL
same,MIC Coagulase Negative Staphylococcus (GC 4551),Staphylococcus sp.,>128 µg/mL
same,"Clinical Chemistry (Day 10) % of Control, ALT",[1],+196%
same,"Clinical Chemistry (Day 10) % of Control, AST",[1],+182%
same,"Clinical Chemistry (Day 10) % of Control, BUN",[1],+161%
same,MIC Escherichia coli (ATCC 25922),Escherichia coli,>128 µg/mL
same,MIC Escherichia coli (GC 4559),Escherichia coli,>128 µg/mL
same,MIC Escherichia coli (GC 4560),Escherichia coli,32 µg/mL
same,"Anatomical Pathology (Day 10), Heart",[2],0
same,"Anatomical Pathology (Day 10), Kidney",[2],+++
"CC(c1ccccc1)C1NC(=O)CNC(=O)C(CO)NC(=O)C(C(O)C2CN(CCCCCCCCCCCCO)C(=N)N2C2OC(CO)C(O)C(O)C2O)NC(=O)C(C(O)C2CNC(=N)N2)NC(=O)C(Cc2ccc(OC3OC(CO)C(OC4OC(CO)C(O)C(O)C4O)C(O)C3O)cc2)NC1=O (stereo not drawn) [Example 61, Cyclo[glycyl-β-methylphenylalanyl-O-(4-O-hexopyranosylhexopyranosyl)tyrosl-3-(2-iminoimidazolidin-4-yl)seryl-3-[3-hexopyranosyl-1-(12-hydroxydodecyl)-2-iminoimidazolidin-4-yl]-serylseryl]]",MIC Streptococcus agalactiae (GC 4564),Streptococcus sp.,128 µg/mL
same,MIC Streptococcus pneumoniae (ATCC 6301),Streptococcus sp.,128 µg/mL
same,MIC Streptococcus pneumoniae (GC 1894),Streptococcus sp.,64 µg/mL
same,MIC Streptococcus pneumoniae (GC 4565),Streptococcus sp.,64 µg/mL
same,MIC Streptococcus pyogenes (GC 4563),Streptococcus sp.,128 µg/mL
same,MIC Streptococcus pneumoniae (ATCC 6301),Streptococcus sp.; strain ATCC 6301,128 µg/mL
same,MIC Streptococcus pneumoniae (GC 1894),Streptococcus sp.; strain GC 1894,64 µg/mL
same,MIC Streptococcus pyogenes (GC 4563),Streptococcus sp.; strain GC 4563,128 µg/mL
same,MIC Streptococcus agalactiae (GC 4564),Streptococcus sp.; strain GC 4564,128 µg/mL
same,MIC Streptococcus pneumoniae (GC 4565),Streptococcus sp.; strain GC 4565,64 µg/mL
same,MIC Enterococcus avium (GC 4558),Enterococcus sp.; Enterococcus avium (GC 4558),64 µg/mL
same,MIC Enterococcus faecalis (ATCC 29212),Enterococcus sp.; [3],128 µg/mL
same,MIC Enterococcus faecalis (GC 4552),Enterococcus sp.; [4],128 µg/mL
same,MIC Enterococcus faecalis (GC 4553),Enterococcus sp.; [5],128 µg/mL
same,MIC Enterococcus faecalis (GC 4554),Enterococcus sp.; [6],128 µg/mL
same,MIC Enterococcus faecalis (GC 6189),Enterococcus sp.; [7],128 µg/mL
same,MIC Enterococcus faecium (GC 2243),Enterococcus sp.; Enterococcus faecium (GC 2243),>128 µg/mL
same,MIC Enterococcus faecium (GC 4556),Enterococcus sp.; Enterococcus faecium (GC 4556),128 µg/mL
same,MIC Enterococcus faecium (GC 4557),Enterococcus sp.; Enterococcus faecium (GC 4557),128 µg/mL
same,MIC Enterococcus avium (GC 4558),Enterococcus sp.,64 µg/mL
same,MIC Enterococcus faecalis (ATCC 29212),Enterococcus sp.,128 µg/mL
same,MIC Enterococcus faecalis (GC 2242),Enterococcus sp.,128 µg/mL
same,MIC Enterococcus faecalis (GC 2691),Enterococcus sp.,128 µg/mL
same,MIC Enterococcus faecalis (GC 3059),Enterococcus sp.,128 µg/mL
same,MIC Enterococcus faecalis (GC 4552),Enterococcus sp.,128 µg/mL
same,MIC Enterococcus faecalis (GC 4553),Enterococcus sp.,128 µg/mL
same,MIC Enterococcus faecalis (GC 4554),Enterococcus sp.,128 µg/mL
same,MIC Enterococcus faecalis (GC 6189),Enterococcus sp.,128 µg/mL
same,MIC Enterococcus faecium (GC 2243),Enterococcus sp.,>128 µg/mL
same,MIC Enterococcus faecium (GC 4556),Enterococcus sp.,128 µg/mL
same,MIC Enterococcus faecium (GC 4557),Enterococcus sp.,128 µg/mL
same,MIC Enterococcus faecalis (GC 2242),Enterococcus sp.; strain GC 2242,128 µg/mL
same,MIC Enterococcus faecalis (GC 2691),Enterococcus sp.; strain GC 2691,128 µg/mL
same,MIC Enterococcus faecalis (GC 3059),Enterococcus sp.; strain GC 3059,128 µg/mL
same,MIC Staphylococcus aureus (ATCC 29213),Staphylococcus sp.,>128 µg/mL
same,MIC Staphylococcus aureus (GC 1131),Staphylococcus sp.,>128 µg/mL
same,MIC Staphylococcus aureus (GC 3051),Staphylococcus sp.,>128 µg/mL
same,MIC Staphylococcus aureus (GC 3053),Staphylococcus sp.,128 µg/mL
same,MIC Staphylococcus aureus (GC 4541),Staphylococcus sp.,>128 µg/mL
same,MIC Staphylococcus aureus (GC 4542),Staphylococcus sp.,>128 µg/mL
same,MIC Staphylococcus aureus-SMITH (GC 4543),Staphylococcus sp.,>128 µg/mL
same,MIC Staphylococcus aureus (GC 4544),Staphylococcus sp.,>128 µg/mL
same,MIC Staphylococcus aureus (GC 4545),Staphylococcus sp.,>128 µg/mL
same,MIC Staphylococcus haemolyticus (GC 4546),Staphylococcus sp.,>128 µg/mL
same,MIC Coagulase Negative Staphylococcus (GC 4547),Staphylococcus sp.,128 µg/mL
same,MIC Coagulase Negative Staphylococcus (GC 4548),Staphylococcus sp.,>128 µg/mL
same,MIC Coagulase Negative Staphylococcus (GC 4549),Staphylococcus sp.,128 µg/mL
same,MIC Coagulase Negative Staphylococcus (GC 4551),Staphylococcus sp.,>128 µg/mL
same,MIC Coagulase Negative Staphylococcus (GC 6257),Staphylococcus sp.; strain GC 6257,>128 µg/mL
same,"Clinical Chemistry (Day 10) % of Control, BUN",[1],+157%
same,"Clinical Chemistry (Day 10) % of Control, Creatinine",[1],+122%
same,MIC Escherichia coli (ATCC 25922),Escherichia coli,128 µg/mL
same,MIC Escherichia coli (GC 4559),Escherichia coli,128 µg/mL
same,MIC Escherichia coli (GC 4560),Escherichia coli,8 µg/mL
same,"Anatomical Pathology (Day 10), Heart",[2],0
same,"Anatomical Pathology (Day 10), Kidney",[2],+++

# Source: patent US6914045B2, “Glycopeptide antibiotics” (Wyeth Holdings Corporation, priority 2001, dated 2005)
